Like-named read-outs stand apart in the source and are kept apart here.
Legend:
food intake = assay: Assay (I) efficacy testing on appetite (food intake), ad libitum fed rat model; format: in vivo, Sprague Dawley (SD) rats; settings: 3 nmol/kg
Procedure, shortened: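 Food consumption was logged per animal every hour up to 7 h and again at 24 h (occasionally 48 h) after a single 0.01–3 mg/kg dose, given sc, po or ip at dark-phase onset. Ad libitum fed SD rats, 200–250 g, kept on inverted light/dark cycle; vehicle group included, outliers removed by Grubbs test.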

[1] = Assay (IV) determination of solubility; format: physicochemical
Procedure, shortened: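 Stock ~500 nmol/ml in water; 1:1 with 100 mM buffer, pH 3.0–8.0 (glycylglycine ≤5.0, bistrispropane ≥6.0); 18 h RT; spin; HPLC quantitation of soluble polypeptide.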

[2] = Assay (IX) pK, determination of T½ in mini-pig; format: in vivo, Göttingen mini-pigs; settings: male, Göttingen, iv, 2 nmol/kg; minipig; plasma terminal half-life

- solubility at 18 h ([1]; bistrispropane buffer, pH 6, pH 6.0, read-out: Solubility pH 6.0): > 200 µM
- solubility at 18 h ([1]; bistrispropane buffer, pH 6.5, pH 6.5, read-out: Solubility pH 6.5): > 200 µM
- solubility at 18 h ([1]; bistrispropane buffer, pH 7, pH 7.0, 18 hours at room temperature, Table 3, read-out: Solubility pH 7.0): > 200 µM
- solubility at 18 h ([1]; bistrispropane buffer, pH 7, pH 7.0, Table 8, read-out: Solubility pH 7.0): > 200 µM
- solubility at 18 h ([1]; bistrispropane buffer, pH 7, pH 7.0, Table 9, read-out: Solubility pH 7.0): > 200 µM
- solubility at 18 h ([1]; bistrispropane buffer, pH 7, pH 7.0, read-out: Solubility pH 7.0): > 200 µM
- solubility at 18 h ([1]; bistrispropane buffer, pH 7.5, pH 7.5, Table 9, read-out: Solubility pH 7.5): > 200 µM
- solubility at 18 h ([1]; bistrispropane buffer, pH 7.5, pH 7.5, read-out: Solubility pH 7.5): > 200 µM
- solubility at 18 h ([1]; bistrispropane buffer, pH 8, pH 8.0, read-out: Solubility pH 8.0): > 200 µM
- solubility at 18 h ([1]; glycylglycine buffer, pH 3, pH 3.0, read-out: Solubility pH 3.0): > 200 µM
- solubility at 18 h ([1]; glycylglycine buffer, pH 4, pH 4.0, 18 hours at room temperature, Table 2, read-out: Solubility pH 4.0): > 200 µM
- solubility at 18 h ([1]; glycylglycine buffer, pH 4, pH 4.0, read-out: Solubility pH 4.0): > 200 µM
- solubility at 18 h ([1]; glycylglycine buffer, pH 5, pH 5.0, read-out: Solubility pH 5.0): > 200 µM
- half-life [2]: 98 h
Compound: CC[C@H](C)[C@H](NC(=O)[C@@H]1CCCN1C(=O)CNC(=O)[C@H](Cc1ccccc1)NC(=O)[C@H](CC(N)=O)NC(=O)[C@H](CC(N)=O)NC(=O)[C@H](CO)NC(=O)[C@H](CO)NC(=O)[C@H](Cc1c[nH]cn1)NC(=O)[C@H](CCCNC(=N)N)NC(=O)[C@H](CC(C)C)NC(=O)[C@H](Cc1ccccc1)NC(=O)[C@H](CCC(=O)O)NC(=O)[C@H](C)NC(=O)[C@H](CC(C)C)NC(=O)[C@H](CCCNC(=N)N)NC(=O)[C@H](CCC(N)=O)NC(=O)[C@@H](NC(=O)[C@H](C)NC(=O)[C@@H]1CSSC[C@H](NC(=O)[C@H](CCCCN)NC(=O)CC[C@H](NC(=O)CCCCCCCCCCCCCCCCCCC(=O)O)C(=O)O)C(=O)N[C@@H](CC(N)=O)C(=O)N[C@@H]([C@@H](C)O)C(=O)N[C@@H](C)C(=O)N[C@@H]([C@@H](C)O)C(=O)N1)[C@@H](C)O)C(=O)N[C@@H](CC(C)C)C(=O)N1CCC[C@H]1C(=O)N1CCC[C@H]1C(=O)N[C@H](C(=O)N[C@@H](CC(N)=O)C(=O)N[C@H](C(=O)NCC(=O)N[C@@H](CO)C(=O)N[C@@H](CC(N)=O)C(=O)N[C@H](C(=O)N1CCC[C@H]1C(N)=O)[C@@H](C)O)C(C)C)[C@@H](C)O [Example 53, N-alpha-[(S)-4-Carboxy-4-(19-carboxynonadecanoylamino)butyryl]-[Glu14,Arg17,Pro37]-pramlintide]
- Food intake reduction 0-24 h 3 nmol/kg (%) (food intake; 0-24 h): 40%
- Food intake reduction 24-48 h 3 nmol/kg (%) (food intake; 24-48 h): 28%
